Test results taken from patent publication US20260262639A1, “PHENYLCYCLOHEXANONE COMPOUND AND USE THEREFOR” (SUMITOMO CHEMICAL COMPANY, LIMITED, priority 2023, published 2026).

Test system: Pythium ultimum
Assay: Control test against seedling blight fungus (Pythium ultimum)
Type: cell-based
Conditions: 1 μL of 500 ppm DMSO solution + 150 μL PDB medium with spores, 96 well plate, 23° C., 5 days, absorbance at 550 nm
Method: The untreated well represents a test well in which the procedures were carried out under the same conditions as those described in the Test Example except that dimethyl sulfoxide was dispensed in place of a diluted dimethyl sulfoxide solution containing the Present compound. The Present compound was diluted with dimethyl sulfoxide to obtain a diluted solution containing 500 ppm of the compound, 1 μL of the diluted solution was dispensed into a titer plate (96 well), and thereto was then dispensed 150 μL of a potato dextrose broth medium (PDB medium) to which spores of Pythium ultimum were inoculated in advance. This plate was cultured at 23° C. for 5 days, thereby allowing Pythium ultimum to undergo proliferation, and the absorbance at 550 nm of each well of the titer plate was then measured to obtain a value as a degree of growth of Pythium ultimum. As a result, the degree of growth in the well treated with the Present compound was 50% or less relative to the degree of growth in the untreated well.

CC1CC(S(C)(=O)=O)C(O)(c2ccccc2)CC1=O (stereo not shown) [Present compound]
degree of growth relative to the degree of growth in the untreated well: ≤ 50%
